Laboratory results published in ChEMBL document CHEMBL2331088, “An α-carbonic anhydrase from the thermophilic bacterium Sulphurihydrogenibium azorense is the fastest enzyme known for the CO2 hydration reaction” (Bioorg Med Chem, 2013).

What was measured:
[1] = Inhibition of Sulfurihydrogenibium yellowstonense YO3AOP1 carbonic anhydrase preincubated for 15 mins by CO2 hydration stopped-flow assay
[2] = Inhibition of Sulfurihydrogenibium azorense carbonic anhydrase preincubated for 15 mins by CO2 hydration stopped-flow assay
[3] = Inhibition of Helicobacter pylori alpha-carbonic anhydrase preincubated for 15 mins by CO2 hydration stopped-flow assay

| Compound | Ki [1] [µM] | Ki [2] [µM] | Ki [3] [µM] |
| --- | --- | --- | --- |
| CC(=O)Nc1nnc(S(N)(=O)=O)s1 [ACETAZOLAMIDE] | 0.004 | 0.0009 | – |
| O=C(O)O [BICARBONATE] | 33200 | 15700 | – |
| Br [BROMIDE] | 49000 | 940 | 2410 |
| S=C(S)S [CARBONOTRITHIOIC ACID] | 60 | 39 | 380 |
| CCN(CC)C(=S)S [DITIOCARB] | 4 | 3.1 | 5 |
| F [FLUORIDE ION] | 417000 | 980 | 4080 |
| Cl [HYDROCHLORIC ACID] | 8300 | 850 | 2700 |
| S [HYDROGEN SULFIDE] | 580 | 380 | – |
| I [IODIDE] | 860 | 870 | 6050 |
| N=C=[Se] [ISOSELENOCYANATE] | 70 | 490 | 730 |
| N=C=S [ISOTHIOCYANATE] | 710 | 580 | 4100 |
| NS(=O)(=O)O [SULFAMATE] | 42 | 4.8 | 80 |
| O=S(=O)(O)O [SULFURIC ACID] | 820 | 10000 | 820 |
| O=S(O)O [SULFUROUS ACID] | 21100 | 950 | 990 |
